In publication PMC8838037, “Design, Synthesis and Molecular Docking Study of Novel 3-Phenyl-β-Alanine-Based Oxadiazole Analogues as Potent Carbonic Anhydrase II Inhibitors” (Molecules, 2022):

Target: T1, bovine erythrocyte CA-II (Bos taurus, UniProt P00921)
T1 construct: purified bovine erythrocyte CA-II; from tissue; host or cells: bovine erythrocytes
Assay: Carbonic anhydrase II inhibition assay (colorimetric, 4-nitrophenyl acetate substrate)
Format: biochemical
Settings: for IC50: N/A = Not active; for % Inhibition: test concentration not given
Protocol: 20 µL of tested compounds were incubated with the enzyme carbonic anhydrase II (EC 4.2.1.1) for 15 min in 96-well flat bottom plate. The rate of product formation was monitored with the addition of 20 µL of 4-NPA as substrate, prepared in ethanol at the final concentration of 0.7 mM at 25 °C for 30 min with regular intervals of 1 min, by using spectrophotometer (xMark^TM Microplate, Bio-Rad, Hercules, CA, USA). HEPES-tris was used as a buffer for the reaction at the final concentration of 20 mM at pH 7.4.

T1 sequence (P00921 2-260): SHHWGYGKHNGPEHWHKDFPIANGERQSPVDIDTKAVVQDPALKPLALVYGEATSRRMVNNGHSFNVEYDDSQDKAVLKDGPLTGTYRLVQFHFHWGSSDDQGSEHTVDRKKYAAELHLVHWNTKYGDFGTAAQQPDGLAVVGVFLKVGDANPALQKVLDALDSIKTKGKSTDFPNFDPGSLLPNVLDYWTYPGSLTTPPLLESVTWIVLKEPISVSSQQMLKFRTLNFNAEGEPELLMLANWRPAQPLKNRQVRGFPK

| IC50 [µM] | % Inhibition [%] | Molecule |
| --- | --- | --- |
| 12.1 ± 0.86 | 96.2 | CC(C)(C)OC(=O)N[C@@H](Cc1nnc(-c2ccccn2)o1)c1ccccc1 [Compound 4a, Tert-Butyl (S)-(1-phenyl-2-(5-(pyridin-2-yl)-1,3,4-oxadiazol-2-yl)ethyl) carbamate] |
| 19.1 ± 0.88 | 93.5 | CC(C)(C)OC(=O)N[C@@H](Cc1nnc(-c2ccccc2O)o1)c1ccccc1 [Compound 4b, Tert-Butyl (S)-(2-(5-(2-hydroxyphenyl)-1,3,4-oxadiazol-2-yl)-1-phenylethyl) carbamate] |
| 18.1 ± 1.31 | 58.0 | CC(C)(C)OC(=O)N[C@@H](Cc1nnc(-c2ccc(O)cc2)o1)c1ccccc1 [Compound 4i, Tert-Butyl (S)-(2-(5-(4-hydroxyphenyl)-1,3,4-oxadiazol-2-yl)-1-phenylethyl) carbamate] |
| 26.6 ± 1.47 | 96.7 | COc1ccc(-c2nnc(C[C@H](NC(=O)OC(C)(C)C)c3ccccc3)o2)cc1OC [Compound 4j, Tert-Butyl (S)-(2-(5-(3,4-dimethoxyphenyl)-1,3,4-oxadiazol-2-yl)-1-phenylethyl) carbamate] |
| 22.4 ± 1.43 | 87.8 | COc1ccc(OC)c(-c2nnc(C[C@H](NC(=O)OC(C)(C)C)c3ccccc3)o2)c1 [Compound 4k, Tert-Butyl (S)-(2-(5-(2,5-dimethoxyphenyl)-1,3,4-oxadiazol-2-yl)-1-phenylethyl) carbamate] |
| 53.6 ± 0.96 | 67.6 | CC(C)(C)OC(=O)N[C@@H](Cc1nnc(-c2ccc(Cl)cc2)o1)c1ccccc1 [Compound 4l, Tert-Butyl (S)-(2-(5-(4-chlorophenyl)-1,3,4-oxadiazol-2-yl)-1-phenylethyl) carbamate] |
| 13.8 ± 0.64 | 95.5 | Tert-Butyl(S)-(1-phenyl-2-(5-phenyl-1,3,4-oxadiazol-2-yl)ethyl) carbamate [Compound 4c] |
|  | 29.0 | Tert-Butyl(S)-(2-(5-(4-methoxyphenyl)-1,3,4-oxadiazol-2-yl)-1-phenylethyl) carbamate [Compound 4d] |
